Results on six compounds are retold here after ChEMBL document CHEMBL1159167, “Synthesis and biological activity of 5-[(2,5-dihydroxybenzyl)amino]salicylic acid analogs as inhibitors of EGF receptor-associated protein tyrosine kinase” (Bioorg Med Chem Lett, 1997).

The structures appear in SMILES notation.

The test deals with Epidermal growth factor receptor (Homo sapiens, UniProt P00533). Nature of the test: Displacement of [gamma-32P]-ATP from Epidermal growth factor receptor in A431 cell-free extracts. The arrangement: species or system A-431.
Chain of Epidermal growth factor receptor (P00533 whole entry): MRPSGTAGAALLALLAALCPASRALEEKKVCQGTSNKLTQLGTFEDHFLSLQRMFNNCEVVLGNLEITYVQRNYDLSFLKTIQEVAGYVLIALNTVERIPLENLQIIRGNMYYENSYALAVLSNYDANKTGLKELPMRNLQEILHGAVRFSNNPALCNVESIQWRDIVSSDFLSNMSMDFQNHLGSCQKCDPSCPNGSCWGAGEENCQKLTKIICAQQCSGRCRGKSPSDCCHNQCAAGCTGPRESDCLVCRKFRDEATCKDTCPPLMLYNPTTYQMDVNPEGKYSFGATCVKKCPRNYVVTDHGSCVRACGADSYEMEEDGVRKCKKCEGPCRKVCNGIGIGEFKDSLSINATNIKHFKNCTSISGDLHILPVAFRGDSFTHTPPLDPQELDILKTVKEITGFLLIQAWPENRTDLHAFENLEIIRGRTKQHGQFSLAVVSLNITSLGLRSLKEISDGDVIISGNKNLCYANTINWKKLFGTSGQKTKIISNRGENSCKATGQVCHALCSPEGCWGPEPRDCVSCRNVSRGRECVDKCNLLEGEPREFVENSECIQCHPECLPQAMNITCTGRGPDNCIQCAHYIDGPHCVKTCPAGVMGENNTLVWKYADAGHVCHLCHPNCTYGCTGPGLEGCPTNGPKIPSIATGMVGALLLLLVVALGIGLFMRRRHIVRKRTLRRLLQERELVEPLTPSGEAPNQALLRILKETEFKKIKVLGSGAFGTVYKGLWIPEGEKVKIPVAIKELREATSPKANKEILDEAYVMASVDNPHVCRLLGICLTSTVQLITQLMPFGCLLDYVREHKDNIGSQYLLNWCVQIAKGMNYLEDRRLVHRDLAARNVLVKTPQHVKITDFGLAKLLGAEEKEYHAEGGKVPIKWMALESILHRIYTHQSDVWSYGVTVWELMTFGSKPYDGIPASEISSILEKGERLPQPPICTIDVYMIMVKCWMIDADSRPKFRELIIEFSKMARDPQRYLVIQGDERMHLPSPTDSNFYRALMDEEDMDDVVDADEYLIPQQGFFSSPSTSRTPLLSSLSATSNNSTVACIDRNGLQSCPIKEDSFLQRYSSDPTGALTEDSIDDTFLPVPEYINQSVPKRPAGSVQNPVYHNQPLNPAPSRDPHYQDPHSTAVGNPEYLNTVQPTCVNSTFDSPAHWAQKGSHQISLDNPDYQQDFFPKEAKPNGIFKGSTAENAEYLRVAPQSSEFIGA

Turning to `CCCCCCCCCCCCCCNC(=O)c1cc(NCc2cc(O)ccc2O)ccc1O`, the IC50 (in general, the concentration at which inhibition is half-maximal) amounted to 27.2 µM.

In the case of `CCCCCCNC(=O)c1cc(NCc2cc(O)ccc2O)ccc1O`, the IC50 came to 0.9 µM.

Take `O=[N+]([O-])c1cc(NCc2cc(O)ccc2O)ccc1O`: the IC50 is 5.4 µM.

The compound `O=S(=O)(O)c1cc(NCc2cc(O)ccc2O)ccc1O` registered a half-maximal inhibitory concentration (IC50) of 10.3 µM. This IC50 lies about 1.9-fold higher than the previous one.

`Oc1ccc(NCc2cc(O)ccc2O)cc1` came in with an IC50 of 41.9 µM.

`CNC(=O)c1cc(NCc2cc(O)ccc2O)ccc1O` registered an IC50 of 9.7 µM.
